The test system of experiment [1] is A-375. Kind of experiment: Induction of necrosis in human A375 cells assessed as morphological changes at IC50 concentration after 44 hrs using acridine orange and ethidium bromide staining by fluorescence microscopy. The experiment is classed as functional, cell-based.
For experiment [2], the system named is A-375. Kind of experiment: Cytotoxicity against human A375 cells after 44 hrs by MTT assay. The experiment is classed as functional, cell-based. To be noted: for IC50: A-375, 44 h.
Experiment [3] concerns A-375. Description: Induction of apoptosis in human A375 cells assessed as morphological changes at IC50 concentration after 44 hrs using acridine orange and ethidium bromide staining by fluorescence microscopy. It counts as functional, cell-based.
Experiment [4] has as its system A-375. Description: Cell cycle arrest in human A375 cells assessed as accumulation at hypodiploid subG1 phase at 20 uM after 24 hrs using propidium iodide staining by flow cytometry relative to control. The experiment is classed as functional.
Experiment [5] relates to A-375. Kind of experiment: Cell cycle arrest in human A375 cells assessed as accumulation at hypodiploid subG1 phase at 50 uM after 24 hrs using propidium iodide staining by flow cytometry relative to control. The experiment is classed as functional.
Experiment [6] deals with A-375. Description: Cell cycle arrest in human A375 cells assessed as accumulation at G2/M phase at 50 uM after 24 hrs using propidium iodide staining by flow cytometry relative to control. The experiment is classed as functional.
Experiment [7] concerns A-375. Kind of experiment: Cell cycle arrest in human A375 cells assessed as accumulation at G2/M phase at 20 uM after 24 hrs using propidium iodide staining by flow cytometry relative to control. The experiment is classed as functional.
For experiment [8], the system named is A-375. Kind of experiment: Cell cycle arrest in human A375 cells assessed as accumulation at S phase at 20 uM after 24 hrs using propidium iodide staining by flow cytometry relative to control. The experiment is classed as functional.
In experiment [9] the test system is A-375. Description: Cell cycle arrest in human A375 cells assessed as accumulation at G0/G1 phase at 20 uM after 24 hrs using propidium iodide staining by flow cytometry relative to control. The experiment is classed as functional.
Experiment [10] concerns A-375. Kind of experiment: Cell cycle arrest in human A375 cells assessed as accumulation at S phase at 50 uM after 24 hrs using propidium iodide staining by flow cytometry relative to control. It counts as functional.
Experiment [11] has as its system A-375. Kind of experiment: Induction of apoptosis in human A375 cells assessed as morphological changes at 50 uM after 44 hrs using acridine orange and ethidium bromide staining by fluorescence microscopy. The experiment is classed as functional.
Experiment [12] concerns A-375. Kind of experiment: Cell cycle arrest in human A375 cells assessed as accumulation at G0/G1 phase at 50 uM after 24 hrs using propidium iodide staining by flow cytometry relative to control. The experiment is classed as functional.
Experiment [13] deals with A-375. Description: Cytotoxicity against human A375 cells at 1 to 100 uM after 44 hrs by MTT assay. The experiment is classed as functional, cell-based.

Active and inactive are the calls of the source. The calls are words filed in the database; no cut-off is given here.

As to `Cc1ccc2nnc(C(=O)NCCCOCCCCOCCCNC(=O)c3nnc4ccc(C)cc4c3N)c(N)c2c1`, the result in the experiment with A-375 [1] was inactive. Moreover, in the experiment on A-375 [2], the inhibition result was “Dose-dependent effect” and the IC50 turned out to be 100 µM. In the experiment on A-375 [3], the result was inactive.

For `Nc1c(C(=O)NCCCOCCCCOCCCNC(=O)c2cnc3ccccc3c2N)cnc2ccccc12`, the Activity with A-375 [4] was 2%; in the experiment on A-375 [5] it was 3%; in the experiment on A-375 [6], 8%; in the experiment with A-375 [7], 20%; in the experiment on A-375 [8], 22%; in the experiment with A-375 [9] it was 58%. For the same compound, the Activity was determined as 53% in the experiment on A-375 [10], 8% with A-375 [11] and 39% in the experiment on A-375 [12]. The result in the experiment on A-375 [1] and in the experiment with A-375 [3] was inactive. Besides, in the experiment with A-375 [2], the inhibition entry was “Dose-dependent effect”. The compound further gave an IC50 in the experiment with A-375 [2] of 15.5 µM.

Take `CN(CCCNC(=O)c1cnc2ccccc2c1N)CCCNC(=O)c1cnc2ccccc2c1N`: in the experiment on A-375 [1], the outcome was inactive. In the experiment on A-375 [2], the inhibition entry is “Dose-dependent effect” and 87.9 µM corresponded to half-maximal inhibition (IC50). Moreover, the result in the experiment on A-375 [3] was inactive.

Consider `O=C1c2cccc([N+](=O)[O-])c2C(=O)N1CCCOCCCCOCCCN1C(=O)c2cccc([N+](=O)[O-])c2C1=O`, for which the result in the experiment with A-375 [13] was inactive.

Consider `Cc1ccc2nnc(C(=O)NCCCN(C)CCCNC(=O)c3nnc4ccc(C)cc4c3N)c(N)c2c1`, for which the outcome in the experiment with A-375 [1] was inactive. Further, in the experiment with A-375 [2], the inhibition entry is “Dose-dependent effect” and the midpoint of inhibition, the IC50, lay at 116 µM. The outcome in the experiment with A-375 [3] was inactive.

Turning to `O=C1c2cccc([N+](=O)[O-])c2C(=O)N1CCCN1CCN(CCCN2C(=O)c3cccc([N+](=O)[O-])c3C2=O)CC1`, the outcome with A-375 [13] was inactive.

In the case of `O=C1c2ccccc2C(=O)N1CCCOCCCCOCCCN1C(=O)c2ccccc2C1=O`, in the experiment with A-375 [13], the result was inactive.

Consider `CN(CCCN1C(=O)c2cccc([N+](=O)[O-])c2C1=O)CCCN1C(=O)c2cccc([N+](=O)[O-])c2C1=O`, for which the result in the experiment on A-375 [13] was inactive.

Regarding `Cc1ccc2nnc(C(=O)NCCCN3CCN(CCCNC(=O)c4nnc5ccc(C)cc5c4N)CC3)c(N)c2c1`, the Activity is recorded as 4% in the experiment on A-375 [4]; 9% in the experiment with A-375 [5]; 46% in the experiment on A-375 [6]; 46% in the experiment with A-375 [7]; 19% with A-375 [8]; 35% with A-375 [9]. The Activity is listed as 22% in the experiment with A-375 [10], 14% in the experiment on A-375 [11] and 32% in the experiment with A-375 [12]. Moreover, the outcome with A-375 [1] and in the experiment with A-375 [3] was inactive. For the same compound, the inhibition result with A-375 [2] was “Dose-dependent effect”. For the same compound, the IC50 in the experiment on A-375 [2] is 31.6 µM.

Take `CN(CCCN1C(=O)c2ccccc2C1=O)CCCN1C(=O)c2ccccc2C1=O`: the outcome in the experiment with A-375 [13] was inactive.

With `Nc1c(C(=O)NCCCN2CCN(CCCNC(=O)c3cnc4ccccc4c3N)CC2)cnc2ccccc12`, the Activity in the experiment on A-375 [4] amounted to 4%; in the experiment with A-375 [7], 21%; with A-375 [8], 31%; with A-375 [9], 49%; in the experiment on A-375 [11], 30%. The outcome in the experiment with A-375 [1] and in the experiment on A-375 [3] was inactive. For the same compound, the inhibition result in the experiment on A-375 [2] is “Dose-dependent effect”. The same compound had an IC50 with A-375 [2] of 16.8 µM.

Turning to `O=C1c2ccccc2C(=O)N1CCCN1CCN(CCCN2C(=O)c3ccccc3C2=O)CC1`, in the experiment with A-375 [13], the outcome was inactive.
